In ChEMBL document CHEMBL3045625, “Antifeedant properties and chemotaxonomic implications of sesquiterpene lactones and syringin from Rhaponticum pulchrum” (2006):

Key:
Type in all cases: functional
Trogoderma granarium = assay: Antifeedant activity against Trogoderma granarium (khapra beetle) in compound treated wheat wafer disks assessed as antifeedant index by no-choice/two-choice assay
Tribolium confusum = assay: Antifeedant activity against Tribolium confusum (confused flour beetle) in compound treated wheat wafer discs assessed as antifeedant index by no-choice/two-choice assay
Sitophilus granarius = assay: Antifeedant activity against Sitophilus granarius (granary weevil) in compound treated wheat wafer disks assessed as antifeedant index by no-choice/two-choice assay

## C=C(CO)C(=O)O[C@H]1CC(=C)[C@@H]2C[C@H](O)[C@]3(CO3)[C@@H]2[C@H]2OC(=O)C(=C)[C@@H]21 [JANERIN]
Trogoderma granarium
  Activity: 95
Tribolium confusum
  Activity: 104
Sitophilus granarius
  Activity: 69

## C=C(C)C(=O)O[C@H]1CC(=C)[C@@H]2C[C@H](O)C(=C)[C@@H]2[C@H]2OC(=O)C(=C)[C@@H]21 [AGUERIN B]
Trogoderma granarium
  Activity: 116.5
Tribolium confusum
  Activity: 114.5
Sitophilus granarius
  Activity: 94.7

## COc1cc(/C=C/CO)cc(OC)c1O[C@@H]1O[C@H](CO)[C@@H](O)[C@H](O)[C@H]1O [SYRINGIN]
Trogoderma granarium
  Activity: 61.7
Tribolium confusum
  Activity: 125.6
Sitophilus granarius
  Activity: 134.4

## C=C(CO)C(=O)O[C@H]1CC(=C)[C@@H]2C[C@H](O)C(=C)[C@@H]2[C@H]2OC(=O)C(=C)[C@@H]21 [CYNAROPICRIN]
Trogoderma granarium
  Activity: 49.5
Tribolium confusum
  Activity: 98.8
Sitophilus granarius
  Activity: 51.6
